This note sets out measurements from PubChem BioAssay (NCI).

Molecules are shown by their SMILES.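 A five-concentration, 48-hour dose response in 96-well plates underlies each endpoint, interpolated linearly between surrounding concentrations. GI50 marks 50% less growth. TGI: total growth inhibition.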

Some test systems named below: EKVX NSCLC; HCT-116 colon; HT29 colon; MCF7 breast; NCI-H460 lung; NCI/ADR-RES ovarian; RXF 393 renal; SK-MEL-5 melanoma; SK-OV-3 ovarian; UACC-62 melanoma.
Assay in all cases: growth of human tumour cells (NCI), 48 h

On to `O=C(Nc1ccc(Cl)cc1)c1ccc([N+](=O)[O-])o1`, for which the GI50 in the experiment on EKVX NSCLC was 3.02 µM; in the experiment on HCT-116 colon it was 1.39 µM; in the experiment with HT29 colon, 1.34 µM; in the experiment on MCF7 breast, 1.52 µM; with NCI-H460 lung, 2.22 µM; with NCI/ADR-RES ovarian, 2.55 µM. The GI50 with RXF 393 renal was 1.34 µM; with SK-MEL-5 melanoma, 3.42 µM; in the experiment with SK-OV-3 ovarian, 2.64 µM; with UACC-62 melanoma, 1.46 µM. In addition, the TGI in the experiment with EKVX NSCLC was determined as 12.5 µM; in the experiment with HCT-116 colon, 3.11 µM; in the experiment with HT29 colon, 3.45 µM; in the experiment with MCF7 breast, 4.19 µM; in the experiment on NCI-H460 lung, 5.55 µM; in the experiment on NCI/ADR-RES ovarian, 11.4 µM. The TGI with RXF 393 renal stood at 3.42 µM; in the experiment with SK-MEL-5 melanoma it was 13.2 µM; in the experiment with SK-OV-3 ovarian, 7.27 µM; with UACC-62 melanoma it was 3.1 µM.
As for `CO/N=C(\COc1ccc2c(c1)oc(=O)c1cc(OC)ccc12)c1ccc(F)cc1`, the GI50 in the experiment on EKVX NSCLC is 35.2 µM; in the experiment on HCT-116 colon, 14.9 µM; with HT29 colon, 16.7 µM; with MCF7 breast, 34.7 µM; in the experiment on NCI-H460 lung, 23.8 µM; with NCI/ADR-RES ovarian, 17.6 µM. Further, the GI50 with RXF 393 renal is 35.1 µM; in the experiment on SK-MEL-5 melanoma, 55.6 µM; in the experiment with SK-OV-3 ovarian, 48.5 µM; in the experiment with UACC-62 melanoma, 21.5 µM. Further, the TGI in the experiment on EKVX NSCLC was greater than 100 µM; in the experiment with HCT-116 colon it was 41.2 µM; in the experiment with HT29 colon, 66.8 µM; in the experiment with MCF7 breast it was greater than 100 µM; in the experiment on NCI-H460 lung, greater than 100 µM; with NCI/ADR-RES ovarian, 35.6 µM. Moreover, the TGI in the experiment with RXF 393 renal was greater than 100 µM; in the experiment on SK-MEL-5 melanoma it was greater than 100 µM; with SK-OV-3 ovarian, greater than 100 µM; in the experiment with UACC-62 melanoma, 73.9 µM.
Consider `COc1cc(Nc2ncc3c(C)nc(-c4cccc(Oc5ccccc5)c4)n3n2)cc(OC)c1OC`, for which the GI50 in the experiment with EKVX NSCLC was 11.2 µM; in the experiment on HCT-116 colon, 3.03 µM; in the experiment with HT29 colon it was 5.71 µM; with MCF7 breast, 7.18 µM; in the experiment on NCI-H460 lung, 3.21 µM; in the experiment with NCI/ADR-RES ovarian, 6.36 µM. Further, the GI50 was 2.28 µM with RXF 393 renal, 3.28 µM in the experiment with SK-MEL-5 melanoma, 1.74 µM in the experiment on SK-OV-3 ovarian and 3.3 µM in the experiment with UACC-62 melanoma. In addition, the TGI in the experiment on EKVX NSCLC is greater than 25 µM; with HCT-116 colon, greater than 25 µM; in the experiment on HT29 colon, 16.3 µM; with MCF7 breast, greater than 24.1 µM; with NCI-H460 lung it was greater than 25 µM; in the experiment with NCI/ADR-RES ovarian it was greater than 25 µM. In addition, the TGI in the experiment with RXF 393 renal was greater than 25 µM; with SK-MEL-5 melanoma it was 6.74 µM; with SK-OV-3 ovarian, greater than 25 µM; in the experiment on UACC-62 melanoma it was greater than 13.8 µM.
For the molecule `O=C1Nc2ccccc2/C1=C/c1ccccc1`, the TGI with EKVX NSCLC was 28.8 µM; in the experiment on HCT-116 colon, 27 µM; with HT29 colon, 48 µM; in the experiment on MCF7 breast, 23.7 µM; in the experiment on NCI-H460 lung, 38.5 µM; in the experiment on NCI/ADR-RES ovarian, 70.6 µM. Besides, the TGI in the experiment with RXF 393 renal was 22.9 µM; in the experiment on SK-MEL-5 melanoma it was 26.1 µM; in the experiment on SK-OV-3 ovarian it was 98.3 µM; with UACC-62 melanoma, 30.7 µM.
